Laboratory results published in PubChem BioAssay (NCI).
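Dose response: 5 concentrations. Exposure: 48 h. Format: 96-well plates. Endpoint: linear interpolation; highest concentration if not reached. GI50 = concentration required for 50% inhibition of growth. TGI: concentration producing complete growth inhibition.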

Legend:
Experiment in all cases: growth of human tumour cells (NCI), 48 h
HL-60(TB) leukemia = system: HL-60(TB) leukemia
OVCAR-8 ovarian = system: OVCAR-8 ovarian
SF-295 CNS = system: SF-295 CNS
SNB-19 CNS = system: SNB-19 CNS
UACC-257 melanoma = system: UACC-257 melanoma
NCI-H522 lung = system: NCI-H522 lung
TK-10 renal = system: TK-10 renal
RPMI-8226 leukemia = system: RPMI-8226 leukemia
CAKI-1 renal = system: CAKI-1 renal
SW-620 colon = system: SW-620 colon
HT29 colon = system: HT29 colon
A549 NSCLC = system: A549 NSCLC
UACC-62 melanoma = system: UACC-62 melanoma
SF-268 CNS = system: SF-268 CNS
HCT-15 colon = system: HCT-15 colon
NCI-H226 lung = system: NCI-H226 lung
HCT-116 colon = system: HCT-116 colon
NCI-H23 lung = system: NCI-H23 lung
SNB-75 CNS = system: SNB-75 CNS
SN12C renal = system: SN12C renal
SK-MEL-28 melanoma = system: SK-MEL-28 melanoma
T-47D breast = system: T-47D breast
U251 CNS = system: U251 CNS
SK-MEL-2 melanoma = system: SK-MEL-2 melanoma
HOP-62 NSCLC = system: HOP-62 NSCLC
IGROV1 ovarian = system: IGROV1 ovarian
LOX IMVI melanoma = system: LOX IMVI melanoma
SF-539 CNS = system: SF-539 CNS
MDA-N = system: MDA-N
UO-31 renal = system: UO-31 renal
MOLT-4 leukemia = system: MOLT-4 leukemia
DU-145 prostate = system: DU-145 prostate
COLO 205 colon = system: COLO 205 colon
HOP-92 NSCLC = system: HOP-92 NSCLC
ACHN renal = system: ACHN renal
PC-3 prostate = system: PC-3 prostate
MDA-MB-231 breast = system: MDA-MB-231 breast
EKVX NSCLC = system: EKVX NSCLC
KM12 colon = system: KM12 colon
NCI/ADR-RES ovarian = system: NCI/ADR-RES ovarian
MDA-MB-435 = system: MDA-MB-435
RXF 393 renal = system: RXF 393 renal
SK-OV-3 ovarian = system: SK-OV-3 ovarian
HCC-2998 colon = system: HCC-2998 colon
M14 melanoma = system: M14 melanoma
OVCAR-5 ovarian = system: OVCAR-5 ovarian
786-0 renal = system: 786-0 renal
SK-MEL-5 melanoma = system: SK-MEL-5 melanoma
OVCAR-3 ovarian = system: OVCAR-3 ovarian
HS 578T breast = system: HS 578T breast
K-562 leukemia = system: K-562 leukemia

CO[C@H]1C[C@@H]2CC[C@@H](C)[C@@](O)(O2)C(=O)C(=O)N2CCCC[C@H]2C(=O)O[C@H]([C@H](C)C[C@@H]2CC[C@@H](OC(=O)C(C)(CO)CO)[C@H](OC)C2)CC(=O)[C@H](C)/C=C(\C)[C@@H](O)[C@@H](OC)C(=O)[C@H](C)C[C@H](C)/C=C/C=C/C=C/1C
TGI (HL-60(TB) leukemia): 6.31 µM | GI50 (OVCAR-8 ovarian): < 0.0143 µM | TGI (OVCAR-8 ovarian): > 86.4 µM | TGI (SF-295 CNS): > 100 µM | TGI (SNB-19 CNS): > 100 µM | TGI (UACC-257 melanoma): 51.5 µM | GI50 (NCI-H522 lung): 0.121 µM | TGI (NCI-H522 lung): > 49.6 µM | GI50 (TK-10 renal): 0.359 µM | GI50 (RPMI-8226 leukemia): < 0.0247 µM | TGI (RPMI-8226 leukemia): > 29.3 µM | TGI (CAKI-1 renal): > 79.7 µM | TGI (SW-620 colon): > 100 µM | GI50 (HT29 colon): 0.182 µM | TGI (HT29 colon): > 100 µM | GI50 (A549 NSCLC): 0.95 µM | TGI (A549 NSCLC): > 100 µM | TGI (UACC-62 melanoma): 29.7 µM | GI50 (SF-268 CNS): 2.99 µM | TGI (SF-268 CNS): > 85.7 µM | GI50 (HCT-15 colon): < 0.0222 µM | TGI (HCT-15 colon): > 100 µM | GI50 (NCI-H226 lung): 0.0187 µM | TGI (NCI-H226 lung): 22.1 µM | TGI (HCT-116 colon): > 100 µM | GI50 (NCI-H23 lung): 1.34 µM | TGI (NCI-H23 lung): > 100 µM | TGI (SNB-75 CNS): 24.4 µM | GI50 (SN12C renal): 0.497 µM | TGI (SN12C renal): > 71.3 µM | TGI (SK-MEL-28 melanoma): > 100 µM | TGI (T-47D breast): > 100 µM | TGI (U251 CNS): > 47.4 µM | TGI (SK-MEL-2 melanoma): > 55.1 µM | GI50 (HOP-62 NSCLC): < 0.0202 µM | TGI (HOP-62 NSCLC): > 100 µM | GI50 (IGROV1 ovarian): 0.000946 µM | TGI (IGROV1 ovarian): 15.3 µM | TGI (LOX IMVI melanoma): > 75.9 µM | TGI (SF-539 CNS): 5.23 µM | TGI (MDA-N): > 73.4 µM | TGI (UO-31 renal): > 100 µM | TGI (MOLT-4 leukemia): > 100 µM | GI50 (DU-145 prostate): 0.0379 µM | TGI (DU-145 prostate): > 100 µM | TGI (COLO 205 colon): > 60.4 µM | GI50 (HOP-92 NSCLC): 1.58 µM | TGI (ACHN renal): > 100 µM | GI50 (PC-3 prostate): < 0.0487 µM | TGI (PC-3 prostate): > 81.6 µM | GI50 (MDA-MB-231 breast): 2.62 µM | TGI (MDA-MB-231 breast): 31.2 µM | TGI (EKVX NSCLC): > 52.2 µM | GI50 (KM12 colon): 2.17 µM | TGI (KM12 colon): > 100 µM | GI50 (NCI/ADR-RES ovarian): 1.01 µM | TGI (NCI/ADR-RES ovarian): 72.5 µM | GI50 (MDA-MB-435): 2.5 µM | TGI (MDA-MB-435): > 100 µM | TGI (RXF 393 renal): 21.9 µM | TGI (SK-OV-3 ovarian): > 100 µM | GI50 (HCC-2998 colon): 0.00154 µM | TGI (HCC-2998 colon): > 46.9 µM | GI50 (M14 melanoma): 16 µM | TGI (M14 melanoma): > 100 µM | GI50 (OVCAR-5 ovarian): > 59.1 µM | TGI (OVCAR-5 ovarian): > 100 µM | TGI (786-0 renal): > 100 µM | GI50 (SK-MEL-5 melanoma): 1.87 µM | TGI (SK-MEL-5 melanoma): > 100 µM | GI50 (OVCAR-3 ovarian): 1.78 µM | TGI (OVCAR-3 ovarian): > 100 µM | TGI (HS 578T breast): 17.2 µM | TGI (K-562 leukemia): > 100 µM
